PMC6479099, “Aminoguanidines: New leads for treatment of Giardia duodenalis infection” (International Journal for Parasitology: Drugs and Drug …, 2019)
“Also recorded” adds a separate entry of the source.

How the values were obtained:
[1] = test system: Giardia trophozoites (BAH2c2); experiment: Proliferation of Giardia trophozoites (resazurin, 96 h); assay type: cell-based, Giardia duodenalis; settings: BAH2c2, 1000 trophozoites per well, read-out: IC50prol, Assemblage A (50% inhibition in the proliferation assay)
Protocol: The effect of the compounds on the proliferation of Giardia trophozoites was determined following the protocol outlined above, with the following modifications. The number of trophozoites was decreased to 1000 per well and the cells were incubated in the presence of each compound for 96 h at 37 °C.
The IC50 of each compound was determined using a resazurin reduction assay, which measures the metabolic activity of cells, using the log (inhibitor) vs. normalised response – variable slope function in Graphpad Prism. The compounds were tested against an assemblage A (BAH2c2, 24 h) and an assemblage B (BAH12, 24 h) isolate (Table 1). […] The effect of the compounds on the proliferation of Giardia trophozoites (BAH2c2) was also determined.

[2] = In vitro cytotoxicity (WST-1), human lung fibroblast; assay type: cell-based; settings: HEL 299 human lung fibroblast cells, 24 h exposure
Protocol: (§1) Cells were passaged every 3 days. Assays were performed in 96 well plates in duplicate. Wells were seeded with 50 000 cells.

[3] = In vitro cytotoxicity (WST-1), human hepatocellular carcinoma; assay type: cell-based; settings: Hep G2 human hepatocellular carcinoma cells, 24 h exposure
Protocol: as §1

[4] = test system: Giardia duodenalis trophozoites; experiment: Modified adherence assay; assay type: cell-based; settings: 4 μM, 5 h exposure
Protocol: (§2) A second screening method, based on counting adherent trophozoites, was developed and used to validate the primary screen method, modified from earlier adherence assay protocols ([Crouch et al., 1986]). The assay was prepared in 24 well plates with plastic coverslips placed in the bottom. Trophozoites were prepared as above by placing on ice and ∼5 × 10^5 cells/mL were added to each well. Drugs prepared in DMSO were added at the required concentration, with the DMSO concentration never exceeding 1%. Assay plates were incubated for 5 h at 37 °C under anaerobic conditions, the media removed and cells adhering to the coverslips were fixed with glutaraldehyde or methanol. Once the coverslips were dry, cells were stained with a Romanowsky stain variant (Rapid stain), fixed to a glass slide and imaged at 10x or 100x magnification. Images (10x magnification) were processed with DotCount v1.2 software (http://reuter.mit.edu/, 2008–2012 ^© Martin Reuter) to count the number of cells present and data analysed using GraphPad Prism version 6.00 for Windows, GraphPad Software, La Jolla California USA, www.graphpad.com. Images (100x magnification) were assessed for obvious morphological changes.
The results for the in vitro drug efficacy studies were analysed using GraphPad Prism version 6.00 for Windows, GraphPad Software, La Jolla California USA, www.graphpad.com. For the resazurin reduction assay the mean and standard error of the mean were determined with each assay completed in triplicate. The IC50 was calculated using the log (inhibitor) vs. normalised response – variable slope function in Graphpad Prism. For the adherence assay mean and standard error of the mean were calculated and data analysed using an unpaired t-test, relative to untreated control.
Fig. 3 Inhibition of adherence of Giardia duodenalis by metronidazole (Mz), robenidine, NCL 062 and NCL 099. Cells were exposed to the compounds for 5 h before staining. Stained cells were imaged at 10x magnification and counted using DotCount™ software. Each assay was completed in triplicate and 5 images taken per sample. Top. Number of adherent trophozoites after exposure to 4 μM of each compound for 5 h; Bottom. An example of the Dotcount software identifying trophozoites at higher magnification. Left: stained trophozoites, Right: highlighted trophozoites identified by the Dotcount software. Each highlighted cell is counted individually. Error ± SEM. * p-value <0.05, ** p-value <0.0001.

Giardia trophozoites = experiment: Morphology of stained trophozoites at 100x magnification; assay type: cell-based, Giardia duodenalis; settings: at IC50, 100 x magnification
Protocol: as §2
Fig. 4 Morphological effect of Robenidine and NCL 099 on Giardia trophozoites. Giardia trophozoites were exposed to each compound for 24 h before fixation with glutaraldehyde and staining following the Diff quik protocol. A-control cells, B – cells treated with metronidazole (IC50, 2 μM), C- robendine treated cells (IC50, 2 μM), D – NCL 099 treated cells (IC50, 3 μM), E − NCL 099 treated cells (2 x IC50).

[5] = test system: Giardia BAH2c2 trophozoites; experiment: Electron microscopy (TEM, SEM) of trophozoites; assay type: cell-based, Giardia duodenalis
Protocol: To determine any effects robenidine has on the ultrastructure of Giardia trophozoites, transmission electron microscopy (TEM) was performed. Giardia BAH2c2 trophozoites were exposed to 3 X IC50 of robenidine or metronidazole for 1 h and placed on ice for 40 min to detach trophozoites then washed twice with PBS (900×g, 10 min 4 °C) and fixed with a combination of glutaraldehyde and formaldehyde overnight. Cells were washed with PBS +4% sucrose before fixation with osmium tetroxide for 1 h. Samples were dehydrated through a graded ethanol series (70–100%) followed by suspension in propylene oxide for ten minutes. Samples were centrifuged and suspended in 1:1 mixture of propylene oxide and epoxy resin for an hour before centrifugation. Following overnight suspension in 100% epoxy resin samples were resuspended in fresh resin and polymerized at 70 °C for 24 h. After sectioning samples were stained with uranyl acetate and lead citrate. Sections were imaged with a FEI tecnai G2 Spirit Transmission Electron microscope (Adelaide Microscopy, University of Adelaide).
To determine the effect that robenidine and metronidazole has on the cell surface of the Giardia trophozoites, scanning electron microscopy (SEM) was performed as follows. Giardia BAH2c2 trophozoites were prepared as for TEM, however they were exposed to compounds for 2 or 4 h. […]

bacteria = experiment: Off-target antibacterial effects; assay type: cell-based

N=C(N/N=C/c1ccc(Cl)cc1)N/N=C/c1ccc(Cl)cc1 [Robenidine, robenidine]
IC50 [1]: 1.2 ± 0.7 µM
GI50 at 24 h [2]: 17.7 µM
GI50 at 24 h [3]: 25.5 µM
Effect on adherence of trophozoites [4]: complete inhibition of adherence
Morphological effect on stained trophozoites at the IC50 (Giardia trophozoites): decrease in the intensity of the membrane stain; also recorded: enlarged nuclei
Ultrastructural changes by TEM ([5]; 3 x IC50, 1 h exposure): extreme membrane blebbing
Cell surface changes by SEM ([5]; 3 x IC50, 2 h exposure): extreme membrane blebbing
Off-target antibacterial effects (bacteria): off-target antibacterial effects
